Columns and labels:
[1] = test system: Cavia porcellus; assay: Percent inhibition effect of ONO-5046 on the increase of skin capillary permeability induced by HNE in guinea pigs in vivo on administration of 10 mg/Kg dose iv in guinea pig; format: functional
[2] = test system: Cavia porcellus; assay: Percent inhibition effect of ONO-5046 on the increase of skin capillary permeability induced by HNE in guinea pigs in vivo on administration of 3 mg/Kg dose iv in guinea pig; format: functional

CC(C)(C)C(=O)Oc1ccc(S(=O)(=O)Nc2ccccc2C(=O)NCC(=O)O)cc1
inhibition in vivo at 10 mg/kg [1]: 51.8%
inhibition in vivo at 3 mg/kg [2]: 31.7%

Reference: ChEMBL document CHEMBL1134889, “Clarification of mechanism of human sputum elastase inhibition by a new inhibitor, ONO-5046, using electrospray ionization mass spectrometry” (Bioorg Med Chem Lett, 2002)
